Values quoted from earlier work in patent US20180296814A1, “ADMINISTRATION OF DRUGS TO A PATIENT” (Progenity, Inc., priority 2010, published 2018).

Conditions: regional absorption in the intestinal tract, rats

## salmon calcitonin
  location of maximum absorption: ileum
